From patent publication US20240368156A1, “2-AZABICYCLO[2.2.1]HEPTANE KRAS INHIBITORS” (INCYTE CORPORATION, priority 2023, published 2024)

Key:
KRAS G12V = KRAS G12V (Homo sapiens, UniProt P01116, G12V); assay: GDP-GTP exchange assay (bodipy-GDP/GppNHp, SOS1), KRAS G12V; assay type: biochemical; conditions: 2.5 nM bodipy-loaded KRAS G12V, 3 h incubation after adding GppNHp-SOS1; for certain compounds the most potent isomer is quoted; read-out: KRAS_G12V exchange assay IC50
Summary of the method: (§1)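 Bodipy-GDP-loaded KRAS G12D or G12V (2.5 nM) pre-incubated 4 h at r.t. with inhibitor in Hepes pH 7.5, 10 mM MgCl2, then exchange started with 500 μM GppNHp and 150 nM SOS1 (final); 2 h (G12D) or 3 h (G12V). Fluorescence at 485/520 nm; IC50 from four-parameter logistic fit.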

KRAS G12D = KRAS G12D (Homo sapiens, UniProt P01116, G12D); assay: GDP-GTP exchange assay (bodipy-GDP/GppNHp, SOS1), KRAS G12D; assay type: biochemical; conditions: 2.5 nM bodipy-loaded KRAS G12D, 4 h pre-incubation, 2 h reaction with GppNHp and SOS1; for certain compounds the most potent isomer is quoted; read-out: KRAS_G12D exchange assay IC50
KRAS G12D, sequence (P01116 1-188 isoform P01116-2 G12D): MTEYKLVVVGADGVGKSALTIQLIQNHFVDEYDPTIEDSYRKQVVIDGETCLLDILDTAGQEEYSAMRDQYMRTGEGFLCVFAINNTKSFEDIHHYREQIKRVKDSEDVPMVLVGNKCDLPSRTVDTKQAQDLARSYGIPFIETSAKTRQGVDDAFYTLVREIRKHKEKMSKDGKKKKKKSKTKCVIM
Summary of the method: as §1

KRAS G12V, sequence (P01116 1-188 isoform P01116-2 G12V): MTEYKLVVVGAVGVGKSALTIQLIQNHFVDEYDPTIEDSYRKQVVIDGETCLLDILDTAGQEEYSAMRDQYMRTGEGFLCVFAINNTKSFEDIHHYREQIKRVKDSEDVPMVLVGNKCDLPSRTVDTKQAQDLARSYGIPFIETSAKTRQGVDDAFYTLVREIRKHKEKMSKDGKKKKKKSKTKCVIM

| SMILES | IC50 (KRAS G12V) [nM] | IC50 (KRAS G12D) [nM] |
| --- | --- | --- |
| Cc1nc2c(F)c(-c3cccc(Cl)c3Cl)c(CCC#N)cc2c2c1cc([C@H]1[C@H]3C[C@H](C[C@@H]3OC3CC3)N1C(=O)C1CC1)n2[C@H]1[C@H]2CN[C@@H]1C2 [Example 36, 3-(1-((1R,4R,5S)-2-Azabicyclo[2.1.1]hexan-5-yl)-2-((1R,3R,4R,5S)-2-(cyclopropanecarbonyl)-5-cyclopropoxy-2-azabicyclo[2.2.1]heptan-3-yl)-7-(2,3-dichlorophenyl)-6-fluoro-4-methyl-1H-pyrrolo[3,2-c]quinolin-8-yl)propanenitrile] | ≤ 100 | ≤ 100 |
| Cc1nc2c(F)c(-c3cccc(Cl)c3Cl)c(CCC#N)cc2c2c1cc([C@H]1[C@H]3C[C@H]([C@@H]4C[C@@H]43)N1C(=O)C1CC1)n2C1C2CNC1C2 (stereo partly drawn) [Example 24, 3-(1-(2-azabicyclo[2.1.1]hexan-5-yl)-2-((1S,2S,4R,5R,7R)-6-(cyclopropanecarbonyl)-6-azatricyclo[3.2.1.02,4]octan-7-yl)-7-(2,3-dichlorophenyl)-6-fluoro-4-methyl-1H-pyrrolo[3,2-c]quinolin-8-yl)propanenitrile] | ≤ 100 | ≤ 100 |
| [2H]C([2H])([2H])O[C@H]1C[C@H]2C[C@@H]1[C@H](c1cc3c(C)nc4c(F)c(-c5cccc(Cl)c5Cl)c(CCC#N)cc4c3n1C1[C@H]3CN[C@@H]1C3)N2C(=O)C1CC1 (stereo partly drawn) [Example 23, 3-(1-((1R,4R)-2-azabicyclo[2.1.1]hexan-5-yl)-2-((1R,3R,4R,5S)-2-(cyclopropanecarbonyl)-5-(methoxy-d3)-2-azabicyclo[2.2.1]heptan-3-yl)-7-(2,3-dichlorophenyl)-6-fluoro-4-methyl-1H-pyrrolo[3,2-c]quinolin-8-yl)propanenitrile] | ≤ 100 | ≤ 100 |
| [2H]C([2H])([2H])O[C@H]1C[C@H]2C[C@@H]1[C@H](c1cc3c(C)nc4c(F)c(-c5cccc(Cl)c5Cl)c(CCC#N)cc4c3n1[C@H]1[C@H]3CN[C@@H]1C3)N2C(=O)C1CC1 (atropisomer, axis not shown; (Ra)) [Example 4, 3-((Ra)-1-((1R,4R,5S)-2-Azabicyclo[2.1.1]hexan-5-yl)-2-((1R,3R,4R,5S)-2-(cyclopropanecarbonyl)-5-(methoxy-d3)-2-azabicyclo[2.2.1]heptan-3-yl)-7-(2,3-dichlorophenyl)-6-fluoro-4-methyl-1H-pyrrolo[3,2-c]quinolin-8-yl)propanenitrile] | ≤ 100 | ≤ 100 |
